Results on three compounds are retold here after ChEMBL document CHEMBL1148038, “Inhibition of Botrytis cinerea by New Sesquiterpenoid Compounds Obtained from the Rearrangement of Isocaryophyllene” (1994).

Assay [1] relates to Botrytis cinerea. The assay is described as follows: Antifungal activity against Botrytis cinerea at 17 ppm for 3 days by centerpoint incubation disk assay. It is filed as functional. The following applies: 72 h, read-out: IZ.
For assay [2], the system named is Botrytis cinerea. The assay can be described thus: Antifungal activity against Botrytis cinerea at 100 ppm for 3 days by centerpoint incubation disk assay. It is filed as functional, organism-based.
Assay [3] deals with Botrytis cinerea. The assay can be described thus: Antifungal activity against Botrytis cinerea by centerpoint incubation disk assay. It is filed as functional, organism-based.
The test system of assay [4] is Botrytis cinerea. The assay is described as follows: Antifungal activity against Botrytis cinerea at 130 ppm for 5 days by centerpoint incubation disk assay. It is filed as functional. Conditions: 120 h, read-out: IZ.

Molecules are shown by their SMILES. Calls of active or inactive are those of the source. The calls are words filed in the database; no cut-off is given here.

For `CC1(C)C[C@@]2(C)CCC[C@]3(C)CC[C@@H]1[C@]32O`, the zone of inhibition at 17 ppm with Botrytis cinerea [1] was found to be 20 mm. Moreover, in the assay on Botrytis cinerea [2], the outcome was Active.

In the case of `CC1=CC[C@@H]2[C@H]3[C@@H]1CC[C@@]3(C)CC2(C)C`, the outcome with Botrytis cinerea [3] was inactive. On to `CC1(C)C[C@@]2(O)[C@]3(C)CCC[C@@]2(C)[C@H]1CC3` [ACETYLGINSENOL], for which, in the assay with Botrytis cinerea [4], the zone of inhibition at 130 ppm was determined as 6 mm. For the same compound, in the assay on Botrytis cinerea [2], the result was Active.
